Test results published in patent US12590099B2, “Inhibitors of histone deacetylase useful for the treatment or prevention of HIV infection” (Merck Sharp & Dohme LLC, priority 2018, dated 2026).
Like-named read-outs stand apart in the source and are kept apart here.

Legend:
Recombinant human HDAC2 = molecular target: T1, Recombinant human HDAC2 (Homo sapiens, UniProt Q92769); test: Human HDAC enzyme inhibitor Fluor-de-Lys assay, HDAC2; assay type: biochemical
T1 construct: Full length human HDAC2-FLAG was expressed in baculovirus infected Sf9 cells; FLAG (C); made in house; host or cells: Sf9 (baculovirus)
Protocol: Human HDAC Enzyme Inhibitor Fluor-De-Lys Assay
Recombinant human HDAC8 (BML-SE145-0100) and HDAC10 (BML-SE559-0050) enzymes, HDAC substrates BML-KI104 and BML-KI178, and HDAC developer solutions BML-KI105 and BML-KI176 were purchased from Enzo Life Sciences. […] HDAC inhibitor suberoylanilide hydroxamic acid (SAHA) was obtained from Indofine and trichostatin A (TSA) was obtained from Sigma-Aldrich.
Recombinant human HDAC1, HDAC2, and HDAC3/SMRT heterodimer were prepared by Merck Research Laboratories. […] The eluted protein was then passed over an anti-HDAC1 immunoaffinity column to remove any complexes containing HDAC1. […]
The histone deacetylase activities of HDAC1, HDAC2, HDAC3, HDAC6, and HDAC8 were measured in modified FLUOR DE LYS assays in 384-well format. In this assay, HDAC enzymes are initially incubated with an ε-acetyl (or -trifluoroacetyl)-L-lysine-containing substrate with a C-terminal amide having aminomethylcoumarin as the amine component. HDACs cleave the ε-acetyl group, rendering the resulting product susceptible to AMC cleavage by trypsin. The released AMC is then detected by its fluorescence.
The HDAC3/SMRT assay employed buffer B, consisting of 20 mM HEPES, pH 8.0, 1 mM MgCl2, 50 mM NaCl, 2.7 mM KCl, 0.05% BSA, 0.005% Tween 20, and 10 μM IP4. […] The HDAC8 assay employed buffer D, consisting of 20 mM HEPES, pH 8.0, 1 mM MgCl2, 100 mM NaCl, 20 mM KCl, 0.10% n-octyl-β-D-glucoside (Anatrace) and 0.05% BSA. All steps were performed at room temperature (23° C.). The assay was performed by pre-incubating serial dilutions of test compounds with the target HDAC prior to initiation with substrate. Each compound was titrated in a 10-point dose response, using a 1:3 fold dilution scheme, with 0.15 ul of solution added by ECH0555 to the plate, followed by the addition of 20 μl of the appropriate HDAC isoform diluted in appropriate assay buffer. […] Final conditions used for each assay were: 1. HDAC 1, 0.3 nM total enzyme, 20 μM substrate BML-KI104; 2. […] HDAC 3/SMRT, 0.3 nM total enzyme, 20 μM substrate BML-KI104; 4. […] The reactions were stopped and developed by addition of 30 ul of HDAC developer solution containing a saturating level of HDAC inhibitor as follows: 1.

Recombinant human HDAC8 = molecular target: T2, Recombinant human HDAC8 (Homo sapiens, UniProt Q9BY41); test: Human HDAC enzyme inhibitor Fluor-de-Lys assay, HDAC8; assay type: biochemical
T2 construct: purchased Enzo Life Sciences BML-SE145-0100
T2 sequence (Q9BY41 1-377): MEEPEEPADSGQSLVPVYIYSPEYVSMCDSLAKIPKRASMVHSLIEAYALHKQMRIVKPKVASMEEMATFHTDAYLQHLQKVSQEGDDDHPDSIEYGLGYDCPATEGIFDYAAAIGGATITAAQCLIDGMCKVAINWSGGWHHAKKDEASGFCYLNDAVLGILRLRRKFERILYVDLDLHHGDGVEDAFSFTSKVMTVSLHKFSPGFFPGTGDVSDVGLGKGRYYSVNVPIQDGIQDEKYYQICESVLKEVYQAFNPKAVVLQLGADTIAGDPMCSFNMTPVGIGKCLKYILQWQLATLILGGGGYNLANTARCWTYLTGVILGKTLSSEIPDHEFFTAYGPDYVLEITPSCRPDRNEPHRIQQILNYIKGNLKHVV

KARN cells (Jurkat 2C4) = test: cells; assay type: cell-based
Outline: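 Luminescence (Steady-Glo, 10 min, room temperature) measured next day in KARN Jurkat 2C4 cells given compounds at up to 40 μM final with 0.4% DMSO. Percent activation normalised to DMSO (0%) and 2 μM SAHA (100%), fitted by 4-parameter curve.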

[1] = Homo sapiens, Jurkat, read-out: Karn EC50 (nM) 0.1% NHS, 0.1% normal human serum
[2] = Homo sapiens, Jurkat, read-out: Karn EC50 (nM) 5% NHS, 5% normal human serum
[3] = read-out: Karn EC50 (nM) 0.1% NHS, 0.1% normal human serum
[4] = read-out: Karn EC50 (nM) 5% NHS, 5% normal human serum

T1 sequence (Q92769 whole entry): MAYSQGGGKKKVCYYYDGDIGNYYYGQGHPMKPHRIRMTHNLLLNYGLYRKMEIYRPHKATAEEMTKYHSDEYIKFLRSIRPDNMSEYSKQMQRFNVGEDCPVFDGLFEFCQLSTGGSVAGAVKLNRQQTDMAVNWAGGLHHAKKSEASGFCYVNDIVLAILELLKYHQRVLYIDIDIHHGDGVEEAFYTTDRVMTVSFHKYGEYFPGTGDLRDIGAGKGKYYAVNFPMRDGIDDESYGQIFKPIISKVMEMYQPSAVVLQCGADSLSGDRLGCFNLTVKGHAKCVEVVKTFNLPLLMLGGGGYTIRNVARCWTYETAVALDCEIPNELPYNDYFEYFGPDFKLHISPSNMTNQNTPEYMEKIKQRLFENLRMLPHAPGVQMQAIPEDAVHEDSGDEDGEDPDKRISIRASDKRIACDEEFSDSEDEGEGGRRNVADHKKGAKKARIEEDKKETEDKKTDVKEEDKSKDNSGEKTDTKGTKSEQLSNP

Row | SMILES | IC50 (Recombinant human HDAC2) [nM] | IC50 (Recombinant human HDAC8) [nM] | EC50 (KARN cells (Jurkat 2C4); [1]) [nM] | EC50 (KARN cells (Jurkat 2C4); [2]) [nM] | EC50 (KARN cells (Jurkat 2C4); [3]) [nM] | EC50 (KARN cells (Jurkat 2C4); [4]) [nM]
1 | CCC(=O)CCCCC[C@H](NC(=O)[C@H]1CC[C@]2(CC1)OC(=O)c1ncccc12)c1ncc(-c2cc3ccccc3nc2OC)[nH]1 [Compound 141] | 38.4 | 2110 | 146 | 1450 | – | –
2 | CCC(=O)CCCCC[C@H](NC(=O)[C@H]1CC12CCN(C)CC2)c1nnc(-c2cc3ccc(C)nc3cc2OC)o1 [Compound 191] | 5.3 | 43200 | 366 | 343 | – | –
3 | CCC(=O)CCCCC[C@H](NC(=O)C1CC12CCN(C)C(C)(C)C2)c1ncc(-c2ccc3nc(C)ccc3c2)[nH]1 (single isomer, unassigned) [Compound 132] | 6.5 | 8060 | – | – | 169 | 281
4 | CCC(=O)CCCCC[C@H](NC(=O)[C@H]1CC12CCN(CC)CC2)c1ncc(-c2ccc3c(=O)n(CC)ccc3c2)o1 [Compound 162] | 9.5 | > 45000 | 257 | 305 | – | –
5 | CCC(=O)CCCCC[C@H](NC(=O)[C@H]1CC12CCN(C)CC2)c1ncc(-c2ccc(C3CC3)nc2)[nH]1 [Compound 139] | 26.1 | 12000 | 532 | 552 | – | –
6 | CCC(=O)CCCCC[C@H](NC(=O)[C@H]1CC12CCN(C)CC2)c1ncc(-c2cnc3cccnc3c2)[nH]1 [Compound 67] | 101 | 2590 | 6480 | 6350 | – | –
7 | CCC(=O)CCCCC[C@H](NC(=O)[C@H]1CC12CCN(C)CC2)c1[nH]c(-c2ccc(F)cc2)nc1C#N [Compound 76] | 19.7 | 16800 | 233 | 409 | – | –
8 | CCC(=O)CCCCC[C@H](NC(=O)[C@@]1(C)CC12CCN(C(C)C)CC2)c1ncc(-c2ccc3nc(C)ccc3c2)[nH]1 (single isomer, unassigned) [Compound 151, (1S or 1R)-1-methyl-6-(1-methylethyl)-N-{(1S)-1-[5-(2-methylquinolin-6-yl)-1H-imidazol-2-yl]-7-oxononyl}-6-azaspiro[2.5]octane-1-carboxamide] | 21.8 | 3180 | 583 | 864 | – | –
9 | CCC(=O)CCCCC[C@H](NC(=O)C1CC12CCN(C)C(C)(C)C2)c1ncc(-c2ccc3nc(C)ccc3c2)[nH]1 (single isomer, unassigned) [Compound 133] | 2.1 | 2060 | – | – | 89 | 81
10 | COc1cc2nc(C)ccc2cc1-c1cnc([C@H](CCCCCC(=O)CC2CC2)NC(=O)[C@H]2CC23CCN(C)CC3)o1 [Compound 195, (1S)—N-{(1S)-8-cyclopropyl-1-[5-(7-methoxy-2-methylquinolin-6-yl)-1,3-oxazol-2-yl]-7-oxooctyl}-6-methyl-6-azaspiro[2.5]octane-1-carboxamide] | 9.7 | 7860 | 163 | 216 | – | –
11 | CCC(=O)CCCCC[C@H](NC(=O)[C@H]1CC12CCN(CC)CC2)c1ncc(-c2ccc3nc(C4CC4)ccc3c2)o1 [Compound 114] | 4.7 | 27000 | 207 | 220 | – | –
12 | CCC(=O)CCCCC[C@H](NC(=O)[C@H]1CC[C@]2(CC1)OC(=O)c1cccnc12)c1ncc(-c2ccc3nc(C4CC4)ccc3c2)o1 [Compound 123] | 94.6 | > 15000 | 868 | 3900 | – | –
13 | CCC(=O)CCCCC[C@H](NC(=O)C1CC12CCN(C)C(C)(C)C2)c1ncc(-c2ccc3nc(C)ccc3c2)[nH]1 (single isomer, unassigned) [Compound 131] | 2.5 | 2780 | – | – | 126 | 128
14 | CCC(=O)CCCCC[C@H](NC(=O)[C@H]1CC12CCN(CC1CC1)CC2)c1ncc(-c2ccc3nc(C4CC4)ccc3c2)[nH]1 [Compound 104] | < 1.5 | 5020 | 33 | 28 | – | –
15 | CCC(=O)CCCCC[C@H](NC(=O)C1CN(C)C1)c1[nH]c(-c2ccc(F)cc2)nc1Br [Compound 65, N-{(1S)-1-[4-bromo-2-(4-fluorophenyl)-1H-imidazol-5-yl]-7-oxononyl}-1-methylazetidine-3-carboxamide] | 306 | 40000 | 2190 | 4390 | – | –
16 | CCC(=O)CCCCC[C@H](NC(=O)[C@H]1CC12CCN(C)CC2)c1ncc(-c2ccc3c(ccc(=O)n3C)c2)o1 [Compound 109] | 9.4 | > 15000 | 706 | 579 | – | –
17 | CCC(=O)CCCCC[C@H](NC(=O)C1=NOC2(CCN(C)CC2)C1)c1ncc(-c2cc3ccc(C)nc3cc2OC)o1 [Compound 196] | 6 | > 900 | 154 | 162 | – | –
18 | CCC(=O)CCCCC[C@H](NC(=O)[C@H]1CC12CCN(CC)CC2)c1ncc(-c2ccc3c(cnn3C3CC3)c2)[nH]1 [Compound 159] | 2.4 | 4620 | 73 | 57 | – | –
19 | CCC(=O)CCCCC[C@H](NC(=O)C1(CC(C)C)CC2(CN(C)C2)C1)c1ncc(-c2ccc3nc(C)ccc3c2)[nH]1 [Compound 157] | 11.9 | 4180 | 451 | 557 | – | –
20 | CCC(=O)CCCCC[C@H](NC(=O)[C@H]1CC12CCN(C)CC2)c1ncc(-c2cc3ccc(=O)n(C)c3cc2OC)o1 [Compound 198] | 3.8 | > 900 | 147 | 176 | – | –
21 | CCC(=O)CCCCC[C@H](NC(=O)C1=NOC2(CCN(C)CC2)C1)c1ncc(-c2cc3ccc(=O)n(C)c3cc2OC)o1 [Compound 193] | 10.9 | > 900 | 284 | 297 | – | –
22 | CCC(=O)CCCCC[C@H](NC(=O)[C@H]1CC12CCN(C)CC2)c1ncc(-c2ccc3nc(C4CC4)ccc3c2)o1 [Compound 121] | 4.4 | 15300 | 232 | 242 | – | –
23 | CCC(=O)CCCCC[C@H](NC(=O)[C@H]1CC12CCN(C)CC2)c1ncc(-c2ccc3nc(C)cc(Cl)c3c2)[nH]1 [Compound 174] | 2.1 | 1210 | 67 | 82 | – | –
24 | CCC(=O)CCCCC[C@H](NC(=O)C1=NOC2(CCN(C)CC2)C1)c1ncc(-c2cc3ccccc3nc2OC)[nH]1 [Compound 105] | 5.3 | 2880 | 126 | 942 | – | –
25 | COc1cc2nc(C)ccc2cc1-c1cnc([C@H](CCCCCC(=O)CC2CCC2)NC(=O)[C@H]2CC23CCN(C)CC3)o1 [Compound 185] | 38 | > 45000 | 1330 | 2960 | – | –
26 | C=CCN1CCC2(CC1)C[C@@H]2C(=O)N[C@@H](CCCCCC(=O)CC)c1ncc(-c2ccc3c(c2)C2CCC3N2CC=C)[nH]1 (stereo partly drawn) [Compound 179, (1S)—N-{(1S)-7-oxo-1-[5-(9-prop-2-en-1-yl-1,2,3,4-tetrahydro-1,4-epiminonaphthalen-6-yl)-1H-imidazol-2-yl]nonyl}-6-prop-2-en-1-yl-6-azaspiro[2.5]octane-1-carboxamide] | 380 | 8660 | 2410 | 2390 | – | –
